Results from US20250179047A1, “5-[7-(3,4-DIHYDRO-1H-ISOQUINOLINE-2-CARBONYL)-1,2,3,4 TETRAHYDROISOQUINOLIN-6-YL]-1H-PYRROLE-3-CARBOXAMIDE DERIVATIVES, PHARMACEUTICAL COMPOSITIONS CONTAINING THEM AND THEIR USES AS PRO-APOPTOTIC AGENTS” (LES LABORATOIRES SERVIER, priority 2022, published 2025).

Experiments:
BCL2 WT = BCL2 WT (Homo sapiens (Human), UniProt P10415); assay: TR-FRET competitive binding assay, BCL2 WT; conditions: Ki determined from IC50, read-out: TR_FRET EKI_Bcl2 WT
In short: (§1)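 Competitive TR-FRET displacement of fluorescein-PUMA peptide (2 or 20 nM) from 0.5 nM terbium-labelled N-terminal Halo-fusion BCL2 (1-207, wild type or mutant) or BCLXL (2-196), expressed in E. coli. Buffer 50 mM Hepes pH 7.5, 150 mM NaCl, 5% DMSO; 2 h at 23°C. 520/495 nm ratio fitted over 11 points for IC50, converted to Ki.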

KMS-12-PE Bcl-2 G101V = assay: In vitro cytotoxicity CellTiter-Glo 48 h, KMS-12-PE Bcl-2 G101V; type: cell-based; conditions: for Ratio (G101V/WT): C50 KMS-12-PE Bcl-2 G101V over C50 KMS-12-PE Bcl-2 WT; for IC50: Homo sapiens, KMS-12-PE, 48 h, CellTiter-Glo, C50 = concentration needed to reach 50% of the cellular viability
In short: (§2)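 Bcl-2 WT- and G101V-expressing KMS-12-PE cells; 48 h treatment at 37 °C, 5% CO2; CellTiter-Glo ATP luminescence; C50 from 11-point curves.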

BCLXL WT = BCLXL WT (Homo sapiens (Human), UniProt Q07817); assay: TR-FRET competitive binding assay, BCLXL WT; conditions: for Ki: BCLXL WT, Ki determined from IC50, read-out: TR_FRET EKI BclxL; for TR_FRET EKI BCLxL/WT selectivty ratio: ratio Ki BCLxL / Ki BCL2 WT
In short: as §1

BCL2 D103Y = BCL2 D103Y (Homo sapiens, UniProt P10415, D103Y); assay: TR-FRET competitive binding assay, BCL2 D103Y; conditions: Ki determined from IC50, read-out: TR_FRET EKI_Bcl2 D103Y
In short: as §1

BCL2 G101V [1] = assay: TR-FRET competitive binding assay, BCL2 G101V; design: species or system human; conditions: ratio Ki BCL2 G101V / Ki BCL2 WT
In short: as §1

BCL2 G101V [2] = target: BCL2 G101V (Homo sapiens, UniProt P10415, G101V); assay: TR-FRET competitive binding assay, BCL2 G101V; conditions: BCL2 G101V; Ki determined from IC50; read-out: TR_FRET EKI_Bcl2 G101V
In short: as §1

KMS-12-PE Bcl-2 WT = assay: In vitro cytotoxicity CellTiter-Glo 48 h, KMS-12-PE Bcl-2 WT; type: cell-based; conditions: Homo sapiens, KMS-12-PE, C50 = concentration needed to reach 50% of the cellular viability
In short: as §2

Chain of BCLXL WT (Q07817 other isoform, or with tags, fused parts or gaps): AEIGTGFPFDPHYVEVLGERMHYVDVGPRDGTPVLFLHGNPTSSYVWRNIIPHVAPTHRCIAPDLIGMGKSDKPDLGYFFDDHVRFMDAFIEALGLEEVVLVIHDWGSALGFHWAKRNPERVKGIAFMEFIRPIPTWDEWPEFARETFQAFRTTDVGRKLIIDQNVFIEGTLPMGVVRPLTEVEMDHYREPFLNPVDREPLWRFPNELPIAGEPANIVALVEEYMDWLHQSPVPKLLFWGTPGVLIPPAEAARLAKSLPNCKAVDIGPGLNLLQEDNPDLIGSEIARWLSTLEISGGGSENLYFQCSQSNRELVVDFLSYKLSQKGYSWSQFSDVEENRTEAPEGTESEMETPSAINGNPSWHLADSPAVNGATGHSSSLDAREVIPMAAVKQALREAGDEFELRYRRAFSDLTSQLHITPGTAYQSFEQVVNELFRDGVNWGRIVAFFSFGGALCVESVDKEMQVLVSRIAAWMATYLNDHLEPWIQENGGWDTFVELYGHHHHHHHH

SMILES | Ki (BCL2 WT) [nM] | Ratio (G101V/WT) (KMS-12-PE Bcl-2 G101V) | IC50 (KMS-12-PE Bcl-2 G101V) [µM] | Ki (BCLXL WT) [nM] | TR_FRET EKI BCLxL/WT selectivty ratio (BCLXL WT) | Ki (BCL2 D103Y) [nM] | TR_FRET EKI G101V/WT selectivty ratio (BCL2 G101V [1]) | Ki (BCL2 G101V [2]) [nM] | IC50 (KMS-12-PE Bcl-2 WT) [µM]
Cc1c(N(C(=O)c2cc(-c3cc4c(cc3C(=O)N3Cc5ccccc5C[C@H]3CN3CCCCC3)CN(C(=O)Cc3ccc(OCCN5CCC(F)(F)C5)cc3)CC4)n(C)c2C)c2ccc(O)cc2)cc(C#N)n1C [Example 82, N-(5-cyano-1,2-dimethylpyrrol-3-yl)-5-[2-(2-{4-[2-(3,3-difluoropyrrolidin-1-yl)ethoxy]phenyl}acetyl)-7-{[(3S)-3-(piperidin-1-ylmethyl)-3,4-dihydro-1H-isoquinolin-2-yl]carbonyl}-3,4-dihydro-1H-isoquinolin-6-yl]-N-(4-hydroxyphenyl)-1,2-dimethylpyrrole-3-carboxamide] | 0.19 | 6.45 | 0.0572 | 6.3 | 33.9 | 0.35 | 6.7 | 1.2 | 0.0095
Cc1c(N(C(=O)c2cc(-c3cc4c(cc3C(=O)N3Cc5ccccc5C[C@H]3CN3CCCCC3)CN(C(=O)Cc3cc(F)c(OCCN5CCOCC5)cc3F)CC4)n(C)c2C)c2ccc(O)cc2)cc(C#N)n1C [Example 83, N-(5-cyano-1,2-dimethylpyrrol-3-yl)-5-[2-(2-{2,5-difluoro-4-[2-(morpholin-4-yl)ethoxy]phenyl}acetyl)-7-{[(3S)-3-(piperidin-1-ylmethyl)-3,4-dihydro-1H-isoquinolin-2-yl]carbonyl}-3,4-dihydro-1H-isoquinolin-6-yl]-N-(4-hydroxyphenyl)-1,2-dimethylpyrrole-3-carboxamide] | 0.09 | 8.1 | 0.0958 | 9.3 | 109.4 | 0.21 | 10.9 | 0.9 | 0.0125
Cc1c(C(=O)N(c2ccc(O)cc2)c2cnn(C)c2)cc(-c2cc3c(cc2C(=O)N2Cc4ccccc4C[C@H]2C)CN(C(=O)Cc2ccc(OCCC4CCOCC4)cc2)CC3)n1C [Example 85, N-(4-hydroxyphenyl)-1,2-dimethyl-5-(7-{[(3R)-3-methyl-3,4-dihydro-1H-isoquinolin-2-yl]carbonyl}-2-(2-{4-[2-(oxan-4-yl)ethoxy]phenyl}acetyl)-3,4-dihydro-1H-isoquinolin-6-yl)-N-(1-methylpyrazol-4-yl)pyrrole-3-carboxamide] | 0.32 | 8.42 | 0.051 | 9.8 | 30.6 | 0.39 | 3.3 | 1.1 | 0.0061
Cc1c(N(C(=O)c2cc(-c3cc4c(cc3C(=O)N3Cc5ccccc5C[C@H]3CN3CCCCC3)CN(C(=O)Cc3ccc(OCCN(C)C5CC5)cc3F)CC4)n(C)c2C)c2ccc(O)cc2)cc(C#N)n1C [Example 88, N-(5-cyano-1,2-dimethylpyrrol-3-yl)-5-{2-[2-(4-{2-[cyclopropyl(methyl)amino]ethoxy}-2-fluorophenyl)acetyl]-7-{[(3S)-3-(piperidin-1-ylmethyl)-3,4-dihydro-1H-isoquinolin-2-yl]carbonyl}-3,4-dihydro-1H-isoquinolin-6-yl}-N-(4-hydroxyphenyl)-1,2-dimethylpyrrole-3-carboxamide] | 0.1 | 4.67 | 0.0296 | 1.7 | 17.0 | 0.27 | 5.9 | 0.6 | 0.0063
Cc1c(C(=O)N(c2ccc(O)cc2)c2ccc3c(cnn3C)c2)cc(-c2cc3c(cc2C(=O)N2Cc4ccccc4C[C@H]2C)CN(C(=O)Cc2ccc(OCCN4CCOCC4)cc2)CC3)n1C [Example 90, N-(4-hydroxyphenyl)-1,2-dimethyl-5-(7-{[(3R)-3-methyl-3,4-dihydro-1H-isoquinolin-2-yl]carbonyl}-2-(2-{4-[2-(morpholin-4-yl)ethoxy]phenyl}acetyl)-3,4-dihydro-1H-isoquinolin-6-yl)-N-(1-methylindazol-5-yl)pyrrole-3-carboxamide] | 0.25 | 5.92 | 0.0657 | 4.5 | 18.0 | 0.88 | 3.4 | 0.8 | 0.0111
Cc1c(N(C(=O)c2cc(-c3cc4c(cc3C(=O)N3Cc5ccccc5C[C@H]3CN3CCCCC3)CN(C(=O)Cc3ccc(OCCN5CCOCC5)cc3F)CC4)n(C)c2C)c2ccccc2)cc(C#N)n1C [Example 92, N-(5-cyano-1,2-dimethyl-pyrrol-3-yl)-5-[2-[2-[2-fluoro-4-(2-morpholinoethoxy)phenyl]acetyl]-7-[(3S)-3-(1-piperidylmethyl)-3,4-dihydro-1H-isoquinoline-2-carbonyl]-3,4-dihydro-1H-isoquinolin-6-yl]-1,2-dimethyl-N-phenyl-pyrrole-3-carboxamide] | 0.03 | 11.7 | 0.0974 | 8.5 | 303.6 | 0.11 | 30.7 | 0.9 | 0.0085
Cc1c(N(C(=O)c2cc(-c3cc4c(cc3C(=O)N3Cc5ccccc5C[C@H]3C)CN(C(=O)Cc3ccc(OCCN5CCOC6(CC6)C5)cc3)CC4)n(C)c2C)c2ccc(O)cc2)cc(C#N)n1C [Example 93, N-(5-cyano-1,2-dimethyl-1H-pyrrol-3-yl)-N-(4-hydroxyphenyl)-1,2-dimethyl-5-{7-[(3R)-3-methyl-1,2,3,4-tetrahydroisoquinoline-2-carbonyl]-2-{2-[4-(2-{4-oxa-7-azaspiro[2.5]octan-7-yl}ethoxy)phenyl]acetyl}-1,2,3,4-tetrahydroisoquinolin-6-yl}-1H-pyrrole-3-carboxamide] | 0.19 | 3.45 | 0.0182 | 2.4 | 12.6 | 0.34 | 5.5 | 1.1 | 0.0053
Cc1c(C(=O)N(c2ccc(O)cc2)c2cc(C#N)n(C(F)F)c2C)cc(-c2cc3c(cc2C(=O)N2Cc4ccccc4C[C@H]2C)CN(C(=O)Cc2ccc(OCCN4CCOCC4)cc2F)CC3)n1C [Example 94, N-[5-cyano-1-(difluoromethyl)-2-methylpyrrol-3-yl]-5-[2-(2-{2-fluoro-4-[2-(morpholin-4-yl)ethoxy]phenyl}acetyl)-7-{[(3R)-3-methyl-3,4-dihydro-1H-isoquinolin-2-yl]carbonyl}-3,4-dihydro-1H-isoquinolin-6-yl]-N-(4-hydroxyphenyl)-1,2-dimethylpyrrole-3-carboxamide] | 0.22 | 3.31 | 0.0107 | 3.3 | 15.0 | 0.66 | 5.0 | 1.1 | 0.0032
Cc1c(C(=O)N(c2ccc(O)cc2)c2cc(C#N)n(C(F)F)c2C)cc(-c2cc3c(cc2C(=O)N2Cc4ccccc4C[C@H]2C)CN(C(=O)Cc2ccc(OCCN4CCOCC4)cc2)CC3)n1C [Example 95, N-[5-cyano-1-(difluoromethyl)-2-methylpyrrol-3-yl]-N-(4-hydroxyphenyl)-1,2-dimethyl-5-(7-{[(3R)-3-methyl-3,4-dihydro-1H-isoquinolin-2-yl]carbonyl}-2-(2-{4-[2-(morpholin-4-yl)ethoxy]phenyl}acetyl)-3,4-dihydro-1H-isoquinolin-6-yl)pyrrole-3-carboxamide] | 0.18 | 4.11 | 0.0196 | 3.9 | 21.7 | 0.46 | 3.2 | 0.6 | 0.0048
Cc1c(N(C(=O)c2cc(-c3cc4c(cc3C(=O)N3Cc5ccccc5C[C@H]3CN3CCCC3)CN(C(=O)Cc3ccc(OCCC5CCOCC5)cc3)CC4)n(C)c2C)c2ccc(O)cc2)cc(C#N)n1C [Example 99, N-(5-cyano-1,2-dimethylpyrrol-3-yl)-N-(4-hydroxyphenyl)-1,2-dimethyl-5-[2-(2-{4-[2-(oxan-4-yl)ethoxy]phenyl}acetyl)-7-{[(3S)-3-(pyrrolidin-1-ylmethyl)-3,4-dihydro-1H-isoquinolin-2-yl]carbonyl}-3,4-dihydro-1H-isoquinolin-6-yl]pyrrole-3-carboxamide] | 0.05 | 7.27 | 0.0763 | 2.8 | 52.8 | 0.14 | 5.2 | 0.3 | 0.0105
